Results from a melting point compilation (Tetko et al.; mined from patent text by program, amines drawn as free bases though some values may be those of a salt).

| SMILES | melting point |
| --- | --- |
| CC(=O)Oc1ccc(CCCC2CC(=O)OC(=O)C2)cc1 | 55 to 57 °C |
| Cc1oc(-c2ccccc2)nc1CCOc1ccc(C[C@H](NC(=O)C=Cc2ccccc2C(F)(F)F)C(=O)O)cc1 | 170 to 172 °C |
| CC(=CCO)c1ccc(-c2ccc(Br)cc2)cc1 | 145 to 148 °C |
| COC(=O)c1cccc(-c2nc(CCl)c(C)o2)c1 | 119 to 120 °C |
| CCc1nc2c(C)c(C#N)c(C)cc2n1-c1ccc(CCNC(=O)NS(=O)(=O)c2ccc(C)cc2)cc1 | 140 to 145 °C |
| COc1ccc(N2CCN(c3c(C)c(C)c4c(c3C)C(O)(C(C)(C)C)C(C)(C)O4)CC2)cc1 (stereo not given) | 113 to 115 °C |
| O=S1c2ccccc2Nc2nccnc21 (stereo not given) | 261 to 263 °C |
| Cc1ccc(-c2nnc[nH]2)cc1-c1cc2cnc(NC3CCOCC3)nc2n(C)c1=O | 215 to 216 °C |
| CC1(C)[C@H](Cc2noc(C(F)(F)F)n2)CC[C@]1(C)NCC(=O)N1C[C@@H](F)C[C@H]1C#N | 130 to 131 °C |
| Cc1ccc(S(=O)(=O)OCC2Cc3cc(C)c4c(c3O2)CCC4)cc1 (stereo not given) | 61 to 64 °C |
| COc1cc2[nH]c(=O)c(-c3csc(-c4cccnc4)n3)c(N)c2cc1OC | > 250 °C |
| O=CC(=C1NCCCS1)[N+](=O)[O-] | 171 to 172 °C |
| O=C(N1Cc2cncnc2-c2ccc(Cl)cc2C1c1ccccc1Cl)C(F)(F)F (stereo not given) | 178 to 179 °C |
| Fc1c(F)c(C(F)(F)F)c(F)c(F)c1Nc1ccc(-c2ccc(Nc3c(F)c(F)c(C(F)(F)F)c(F)c3F)cc2)cc1 | 179 to 180 °C |
| CCOC(=O)Cc1ccc(S(=O)(=O)C2CC2)cc1 | 102 to 104 °C |
| O=S(=O)(Nc1ncc(Br)nc1OCc1cnccn1)c1cccc(Cl)c1Cl | 207 to 209 °C |
| Cc1cc(Oc2cc(C(F)(F)F)nn2C)nc(Cl)n1 | 65 °C |
| CC(C)n1cccc1C(N)=S | 97.5 to 100 °C |
| Nc1sc2cccnc2c1N | 204 to 209 °C |
| COc1cc(Nc2c(C#N)cnc3cc(-c4ccc(C5OCCO5)o4)ccc23)c(Cl)cc1Cl | 224 to 229 °C |
| Cc1ccc(Cn2ccnc2)cc1 | 51 to 53 °C |
| O=[N+]([O-])c1cccnc1N=C=S | 115 to 118 °C |
| CC(=O)N(C(=O)C1=NN(c2ccc(Cl)cc2)C(c2ccc(Cl)cc2)C1)c1ccc(C(F)(F)F)cc1 (stereo not given) | 158 to 160 °C |

| SMILES | melting point |
| --- | --- |
| C=CCCN1CCN(c2nc(C)c(C(=O)NCc3cccnc3)s2)C1=O | 144 to 145 °C |
| Cc1cc(C(=CNc2ccc(O)cc2)C(=O)c2ccccc2)on1 | 73 to 74 °C |
| N#Cc1ccc([C@H]2CC[C@H](C=C(F)F)CC2)cc1 | 59.3 °C |
| CSc1ccc(-c2nn(Cc3ccc(Cl)cc3Cl)c(=S)cc2-c2ccc(Cl)cc2)cc1 | 183 °C |
| CCOC(=O)c1cc(Nc2cccc(Cl)c2)c(C(=O)OCC)cc1Nc1cccc(Cl)c1 | 145 to 146 °C |
| CC1CCCCC1Nc1c(C(=O)O)cnn2cccc12 (stereo not given) | 195 °C |
| Cc1cccc(-c2[nH]c(C(C)C)nc2-c2ccc(F)c(-c3cc[nH]n3)c2)n1 | 195 to 198 °C |
| CC1(C)Oc2c(N)cccc2C1=O | 80 to 84 °C |
| CCOC(=O)c1oc(Cl)nc1C | 55 to 58 °C |
| C=C(C)CC(NC=O)(C(=O)OCC)C(=O)OCC | 72 °C |
| O=C(O)c1oc(=O)c2ccccc2c1-c1ccc(F)cc1 | 218 to 220 °C |
| Nc1ncnc2c1c(Br)cn2COCCO | 163 to 164 °C |
| CCCCc1oc2ccccc2c1-c1ncc(-c2ccc3c(Br)c(OCc4ccc(C(=O)O)cc4)ccc3c2)o1 | 281 to 283 °C |
| O=C(O)c1ccccc1OCc1cccc(OCc2ccc3ccccc3n2)c1 | 149 to 154 °C |
| CCOC(=O)C(NC(=O)c1ncn(Cc2ccccc2)c1[N+](=O)[O-])(OC)C(=O)OCC | 126 to 127 °C |
| O=C(O)CCCCCCCOc1ccccc1O | 60 to 64 °C |
| O=C(O)c1scc(Cl)c1C(=O)Nc1ccccc1 | 208 to 210 °C |
| O=C(Oc1ccccc1)n1c(=O)c(F)cn(C2CC(OCc3ccccc3)C(CO)O2)c1=O (stereo not given) | 110 to 112 °C |
| O=C1Nc2cccc(-c3cccc(NC(=O)c4ccc(S(=O)(=O)F)cc4)c3)c2/C1=C/c1ccc[nH]1 | 148 to 151 °C |
| CC(C)(C)C(=O)c1cncnc1 | 64 to 66 °C |
| Oc1cccc(NCc2ccccc2)n1 | 158 to 162 °C |
| NC(=O)CCC(CCCCNS(=O)(=O)c1ccc(Cl)cc1)CCCc1cccnc1 (stereo not given) | 100 to 102 °C |
| Cn1c(=O)c(-c2c(Cl)cccc2Cl)cc2cnc(NCc3ccccc3)nc21 | 217 to 219 °C |

| SMILES | melting point |
| --- | --- |
| COc1cc2c3ccc(OC)c(OC)c3n(CCCc3ccccc3)c2cc1OC | 116 to 118 °C |
| O=C(Nc1ccccc1)C12CC3CC(CC(C3)C1)C2 | 196 to 199 °C |
| CCOP(=O)(OCC)SCc1ccc(-c2nc(S)c3cc(Br)ccc3n2)cc1 | 196 to 199 °C |
| CC(C)(C)OC(=O)N1CCc2c(n(CC(=O)Nc3ccccc3)c3ccc(Cl)c(Cl)c23)CC1 | 208 to 210 °C |
| O=C1NCC(Cc2ccccc2Br)O1 (stereo not given) | 130 to 131 °C |
| N[C@]1(C(=O)O)[C@H]2[C@@H](C[C@H]1OCc1ccccc1)[C@@H]2C(=O)O | > 250 °C |
| N#Cc1nn(-c2c(Cl)cc(C(F)(F)F)cc2Cl)c(N)c1C=NO | 175 to 178 °C |
| O=C(c1cc(-c2ccccc2)c(=O)n2c1-c1ccccc1C2)N1CC(O)C1 | 238 to 242 °C |
| COc1ccc(NC(=O)c2ccc([N+](=O)[O-])c(OC)c2)cc1 | 168 to 169 °C |
| Nc1ccc(C(=O)NNC(=O)CCCCN2CCC(Cc3ccccc3)CC2)cc1 | 163 to 165 °C |
| N#Cc1ccccc1S(=O)(=O)N1CCCC1c1ccc(F)cc1 (racemic) | 101 °C |
| CCCc1nc(S(C)=O)c(C(=O)OCC)n1Cc1cc2c(cc1Cl)OCO2 (stereo not given) | 187 °C |
| Cc1cccc2c(=O)[nH]c(C3CCN(CCO)C3)cc12 (single isomer, unassigned; (-)) | 137 to 139 °C |
| CC(C)(C)[C@@H]1O[C@@H](O)[C@@H]2[C@H]1C2(C)C | 126 °C |
| CN(C(=O)[C@@H](OP(c1ccccc1)c1ccccc1)C(C)(C)C)P(c1ccccc1)c1ccccc1 | 95 to 96 °C |
| COc1ccc(-c2nc3ccc(OC(F)(F)F)cc3[nH]2)c(OC)c1 | 201 to 203 °C |
| COC(=O)N(C)C1CN(C(=O)Nc2ccc(OC(F)(F)F)cc2)N=C1c1ccc(O)cc1 (stereo not given) | 228 to 233 °C |
| CCc1nn(Cc2cc(O)n[nH]2)c(CC)c1Oc1cc(Cl)cc(Cl)c1 | 142 to 144 °C |
| Cc1noc(NS(=O)(=O)c2ccccc2-c2ccccc2CO)c1C | 70 to 80 °C |
| N#Cn1nc(-c2ccccc2)c(=O)cc1Cl | 117 to 119 °C |
| O=C(O)CCC(=O)c1ccc(C2CCCCC2)cc1 | 140 to 141 °C |
| COCCn1c(C)c(C2(c3ccc(N(C)C)cc3C)OC(=O)c3ccccc32)c2ccccc21 (stereo not given) | 205 to 207 °C |
| Cn1ncc(/C=C/C(=O)Nc2ccc(CS(C)=O)cc2)c1-c1ccc(F)cc1 (stereo not given) | 240 to 241 °C |

Second part, the molecule after the results:

| melting point | SMILES |
| --- | --- |
| 98 °C | CCCCCSc1cc(C(=O)O)cc(N)c1Oc1ccccc1 |
| 155 to 156 °C | O=C(O)Cc1[nH]nc2c1CCCC2 |
| 128 to 129 °C | CCOC(=O)c1cn(-c2cnccn2)cn1 |
| 68 °C | Cc1ccc2c(ccn2C)c1O |
| 149 to 150 °C | CCOc1cc2cc(C(=O)OC)c(C(=O)OC)c(-c3ccncc3)c2cc1OCC |
| 159 °C | NCCCNc1nccc(NC(N)=NCC(F)(F)F)n1 |
| 115 to 118 °C | O=C(NCCCC(CCCNC(=O)c1ccccc1)OC(F)(F)F)c1ccccc1 |
| 97 to 100 °C | Cn1c(COc2ccc(CC3SC(=O)N(C(c4ccccc4)(c4ccccc4)c4ccccc4)C3=O)cc2)nc2cc(Br)cnc21 (stereo not given) |
| 155 °C | COc1ccc(-c2cncc(OC3SCC(OC(C)=O)C(OC(C)=O)C3OC(C)=O)c2)cc1Cl (stereo not given) |
| 55 to 56 °C | CCOC(=O)CN(C)c1ccc(N=O)cc1 |
| 150 to 151 °C | O=C(NCCOc1ccc(CC(Oc2cc(F)cc(F)c2)C(=O)O)cc1)c1ccc(-c2ccccn2)cc1 (stereo not given) |
| 131 to 134 °C | CCCCn1ccc(C=CC(=O)O)cc1=O |
| 59 to 61 °C | COc1ccc2c(c1)CCC(CC(=O)N1CCCCC1)C2 (stereo not given) |
| 122 to 126 °C | NC(=O)Cc1cc(Oc2ccc3c(ccn3C(=O)Nc3ccc(CN4CCN(C5CC5)CC4)c(C(F)(F)F)c3)c2)ncn1 |
| 121 °C | Cc1ccc(S(=O)(=O)N2CCCC2c2ccc(Cl)cc2)cc1 (racemic) |
| 67 °C | CCOC(=O)c1c(O)c2ccccc2n(C)c1=O |

| melting point | SMILES |
| --- | --- |
| 60 to 62 °C | COC(=O)C1=CC(=O)C(C)(c2ccccc2)O1 (stereo not given) |
| 97 °C | COc1ccc2c(c1OC)CCN(CCc1ccc([N+](=O)[O-])cc1)C2 |
| 156 to 157 °C | O=C1Nc2ccccc2SC1CO (stereo not given) |
| 176 to 177 °C | Cc1cc(C(=O)N2Cc3ccc(C(=O)NCc4cccnc4)n3Cc3ccccc32)ccc1I |
| 243 to 245 °C | COCc1c(C(=O)OC(C)C)ncc2[nH]c3c(c12)C(=O)CCC3 |
| 271 to 273 °C | O=C(O)c1cn(-c2ccncc2F)c2cc(F)c(F)cc2c1=O |
| 53 to 57 °C | COC(=O)Cc1ccc(OCCNC(=O)C2Cc3ccccc3N2S(=O)(=O)c2ccc(-c3cccc(C(F)(F)F)c3)cc2)cc1C (stereo not given) |
| 101 to 103 °C | N#CCCN1CCC(COC(=O)c2cc(Cl)c(N)c3c2OCCO3)CC1 |
| 207 to 209 °C | CCc1ccc(-n2c(-c3cccnc3)nc(SC)c(C#N)c2=O)cc1 |
| 59 to 61 °C | CCCCCCCCc1sc(NC(=O)c2cc3ccccc3n2CCC(=O)OCC)nc1-c1cc(OC)c(Cl)cc1OC |
| 77 to 79 °C | COc1ccc(C2(C#N)C=C(C#N)CCC2)cc1OC1CCCC1 (stereo not given) |
| > 250 °C | Cc1c2c(nn1-c1ccccc1)c(=O)[nH]c1ccccc12 |
| 145 to 147 °C | NC(=O)N(O)Cc1ccc(Br)s1 |
| 263 to 267 °C | CCC(=O)Nc1nc(N2CCC(c3c[nH]c4ccc(NC(C)=O)cc34)CC2)cs1 |
| 127 to 128 °C | CC1(C)CCC(C)(C)c2cc(C(F)C(=O)O)ccc21 (stereo not given) |
